From patent US4857650A, “Novel renin inhibitory amino acid derivatives” (Kissei Pharmaceutical Co., Ltd., priority 1985, dated 1989)

Tests used:
human renin [1] = molecular target: T1, human renin (Homo sapiens, UniProt P00797); details: 106th Annual Meeting of the Pharmaceutical Society of Japan (April, 1986)/Meeting of Japanese Circulation Journal (March, 1986); cited from earlier work
T1 sequence (P00797 67-406): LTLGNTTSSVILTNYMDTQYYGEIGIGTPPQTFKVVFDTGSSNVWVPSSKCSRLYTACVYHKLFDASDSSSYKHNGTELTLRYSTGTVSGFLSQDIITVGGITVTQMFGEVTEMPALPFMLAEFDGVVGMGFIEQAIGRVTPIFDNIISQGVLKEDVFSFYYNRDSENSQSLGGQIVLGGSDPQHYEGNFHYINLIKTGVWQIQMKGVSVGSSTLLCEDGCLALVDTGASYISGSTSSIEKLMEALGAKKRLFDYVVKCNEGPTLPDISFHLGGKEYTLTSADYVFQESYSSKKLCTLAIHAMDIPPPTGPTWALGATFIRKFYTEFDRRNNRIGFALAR

human renin [2] = molecular target: T1, human renin; test: Human renin-sheep renin substrate reaction system in vitro; assay type: biochemical; details: pH 7.4, 15 minutes at 37° C., read-out: IC50 (molar concentration)
Protocol: Human resin-sheep resin substrate reaction system in vitro To a mixture containing 200 μl of a 125 mM pyrophosphate buffer (pH 7.4), 25 μl of a 20 mM aqueous solution of […] as an angiotensin converting enzyme inhibitor, 50 μl of semipurified sheep renin substrate ([…]), 50 μl of dimethyl sulfoxide solution of an amino acid derivative of the present invention (or 50 μl of dimethyl sulfoxide as a control) and 150 μl of deionized water was added 25 μl of purified human renin (20-30 ng angiotensin I/ml/hr). The mixture was incubated for 15 minutes on a water bath at 37° C., and the reaction mixture was allowed to stand for 5 minutes on a water bath at 100° C. to stop the reaction. After cooling, 200 μl of the solution were taken up and the amount of angiotensin I produced by the addition of renin was determined by radioimmunoassay. The inhibitory effect was calculated by the following equation. [formula] The molar concentration which produced 50% inhibition (IC50) was calculated from the inhibition value obtained, and the results are shown below.

[3] = molecular target: T2, renin in human high renin plasma (Homo sapiens, UniProt P00797); test: Renin inhibitory effect in a human high renin plasma; assay type: biochemical; details: pH 7.4, 30 minutes at 37° C., read-out: IC50 (molar concentration)
T2 construct: 500 μl of human high renin plasma; from tissue; host or cells: human high renin plasma
T2 sequence (P00797 67-406): T1 sequence (P00797 67-406)
Protocol: Renin inhibitory effect in a human high renin plasma A mixture of 350 μl of a 0.5M phosphate buffer containing 14 mM EDTA 2Na and a 0.3% neomycin sulfate, which was adjusted to the pH of 7.4, 50 μl of a 20 mM an aqueous solution of […] as an angiotensin converting enzyme inhibitor and 100 μl of dimethyl sulfoxide solution containing an amino acid compound of the present invention was added to 500 μl of human high renin plasma. […] was incubated for 30 minutes at 37° C. in a water bath. A 200 μl sample was withdrawn from the incubated mixture, chilled immediately in an ice bath, and the amount of angiotensin I produced was determined by radioimmunoassay, and remaining of the mixture (200 μ[…] 4° C. in an ice bath. The amount of angiotensin I produced in the incubated mixture at 4° C. in an ice bath was determined by radioimmunoassay. As a control, the same procedure as above was carried out by using 100 μl of dimethyl sulfoxide alone in place of the 100 μl of dimethyl sulfoxide solution containing an amino acid compound of the present invention. The inhibitory effect was calculated by the following equation. [formula] The molar concentration which produced 50% inhibition (IC50) was calculated from the inhibition value obtained, and the results are shown below.

common marmoset = test: Hypotensive effect in marmoset (furosemide-induced high renin state); assay type: in vivo; details: oral
Protocol: The experiment was carried out by using common marmoset as described in K. G. Hofbauer et al., Clinical and Experimental hypertension, Vol. A5, Nos. 7 & 8 (1983), pages 1237-1247.
Furosemide was orally administered three times to common marmoset at 15 mg per kilogram per day every other day to create a high renin state. Blood pressure of conscious marmoset was measured 2 days after the last administration of furosemide.
Measurement of blood pressure
Two conscious male marmosets weighing 365-380 g were fixed. Mean blood pressure at tail artery was recorded on pretismograph instument. The amino acid compound of the present invention, administered orally using a catheter.

[4] = 100 mg/kg, n = 2, 1 hour after administration, control 94.0 in (a), 90.9 in (c)
[5] = 100 mg/kg, n = 2, 2 hours after administration, control 94.0 in (a), 90.9 in (c)
[6] = 100 mg/kg, n = 2, 3 hours after administration, control 94.0 in (a), 90.9 in (c)
[7] = 100 mg/kg, n = 2, 5 hours after administration, control 94.0 in (a), 90.9 in (c)
[8] = 100 mg/kg, n = 2, 7 hours after administration, control 94.0 in (a), 90.9 in (c)

In the case of `CC(C)CC(NC(=O)[C@H](Cc1c[nH]cn1)NC(=O)C(CC(=O)N1CCOCC1)Cc1cccc2ccccc12)C(O)C(=O)OC(C)C` (some centres unmarked), the “human renin inhibitory activity” value (human renin [1]) is given as “human renin inhibitory activity”.

`COC(=O)CN(C)C(=O)CC(Cc1cccc2ccccc12)C(=O)N[C@@H](Cc1c[nH]cn1)C(=O)N[C@@H](CC(C)C)C(O)C(=O)OC(C)C` (mixture of isomers) [Isopropyl(2RS,3S)-3-{N-[2-(1-naphthylmethyl)-3-(N-methyl-N-methoxycarbonylmethylcarbamoyl)propionyl]-L-histidyl}amino-2-hydroxy-5-methylhexanoate] showed an IC50 (human renin [2]) of 17 nM, an IC50 [3] of 20 nM and a Blood pressure (common marmoset; 30 mg/kg, n = 2, 1 hour after administration, control 95.4) of 62.1 mmHg. The Blood pressure (common marmoset; 30 mg/kg, n = 2, 2 hours after administration, control 95.4) was 59.8 mmHg, the Blood pressure (common marmoset; 30 mg/kg, n = 2, 3 hours after administration, control 95.4) was 66.5 mmHg and the Blood pressure (common marmoset; 30 mg/kg, n = 2, 5 hours after administration, control 95.4) was 84.9 mmHg. For the same molecule, the Blood pressure (common marmoset; 30 mg/kg, n = 2, 7 hours after administration, control 95.4) was 88.3 mmHg.

`COC(=O)[C@@H]1CCCN1C(=O)CC(Cc1cccc2ccccc12)C(=O)N[C@@H](Cc1c[nH]cn1)C(=O)N[C@@H](CC(C)C)C(O)C(=O)OC(C)C` (stereo partly drawn) [Isopropyl(2RS,3S)-3-{N-[2-(1-naphthylmethyl)-3-(2S-methoxycarbonylpyrrolidinocarbonyl)propionyl]-L-histidyl}-amino-2-hydroxy-5-methylhexanoate] gave an IC50 (human renin [2]) of 52 nM, an IC50 [3] of 50 nM and a Blood pressure (common marmoset; [4]) of 77.5 mmHg. It also gave a Blood pressure (common marmoset; [5]) of 74.0 mmHg, a Blood pressure (common marmoset; [6]) of 70.0 mmHg and a Blood pressure (common marmoset; [7]) of 92.2 mmHg. It also gave a Blood pressure (common marmoset; [8]) of 101.5 mmHg.

`COC(=O)CC(Cc1cccc2ccccc12)C(=O)N[C@@H](Cc1c[nH]cn1)C(=O)N[C@@H](CC(C)C)C(O)C(=O)OC(C)C` (mixture of isomers) [Isopropyl (2RS,3S)-3-[3-(methoxycarbonyl)-2-(1-naphthylmethyl)propionyl-L-histidyl]amino-2-hydroxy-5-methylhexanoate] showed an IC50 (human renin [2]) of 25 nM, an IC50 [3] of 56 nM and a Blood pressure (common marmoset; [4]) of 78.6 mmHg. The Blood pressure (common marmoset; [5]) was 76.9 mmHg, the Blood pressure (common marmoset; [6]) was 69.4 mmHg and the Blood pressure (common marmoset; [7]) was 76.0 mmHg. For the same molecule, the Blood pressure (common marmoset; [8]) was 77.8 mmHg and the Blood pressure (common marmoset; 100 mg/kg, n = 2, 9 hours after administration, control 90.9 in (c)) was 85.3 mmHg.

Work on `COC(=O)CNC(=O)CC(Cc1cccc2ccccc12)C(=O)N[C@@H](Cc1c[nH]cn1)C(=O)N[C@@H](CC(C)C)C(O)C(=O)OC(C)C` (mixture of isomers) [Isopropyl(2RS,3S)-3-{N-[2-(1-naphthylmethyl)-3-(N-methoxycarbonylmethylcarbamoyl)propionyl]-L-histidyl}amino-2-hydroxy-5-methylhexanoate] yielded an IC50 (human renin [2]) of 240 nM and an IC50 [3] of 76 nM.

Molecule `COC(=O)[C@H]1CCCN1C(=O)CC(Cc1cccc2ccccc12)C(=O)N[C@@H](Cc1c[nH]cn1)C(=O)N[C@@H](CC(C)C)C(O)C(=O)OC(C)C` (stereo partly drawn) [Isopyl(2RS,3S)-3-{N-[2-(1-naphthylmethyl)-3-(2R-methoxycarbonylpyrrolidinocarbonyl)propionyl]-L-histidyl}amino-2-hydroxy-5-methylhexanoate] has an IC50 (human renin [2]) of 28 nM and an IC50 [3] of 15 nM.

`CC(C)C[C@H](NC(=O)[C@H](Cc1c[nH]cn1)NC(=O)C(CC(=O)N(C)CCO)Cc1cccc2ccccc12)C(O)C(=O)OC(C)C` (mixture of isomers) [Isopropyl(2RS,3S)-3-{N-{2-(1-naphthylmethyl)-3-[N-methyl-N-(2-hydroxyethyl)carbamoyl]propionyl}-L-histidyl}amino-2-hydroxy-5-methylhexanoate] gave an IC50 (human renin [2]) of 41 nM and an IC50 [3] of 28 nM.
